Data reported in patent US10398142B2, “Polycationic amphiphiles as antimicrobial agents” (priority 2013, dated 2019).
Several values for one entry are separate records, joined by “and”; a condition that tells them apart may be missing. Identical values can stand only once. Like-named read-outs stand apart in the source and are kept apart here. Marks after values point to notes of the source that are not given here.

Columns and labels:
[1] = test system: CA-MRSA (USA300-0114) biofilms; test: Minimum biofilm eradication concentration (MBEC), regrowth assay; format: cell-based, Staphylococcus aureus; settings: for MBEC CA-MRSA: Table 5, USA300-0114
Description: (§1) A regrowth assay was used to establish the MBEC of a compound to evaluate the antibiofilm activity. See also H. Ceri, M. Olson, D. Morck, D. Storey, R. Read, A. Buret, B. Olson, Methods Enzymol. 2001, 337, 377.
(§2) Different biological assays were performed. For all biological assays, laboratory strains of methicillin-susceptible Staphylococcus aureus MSSA (SH1000), Enterococcus faecalis (OG1RF), Escherichia coli (MC4100), Pseudomonas aeruginosa (PAO1), community-acquired methicillin-resistant Staphylococcus aureus CA-MRSA (USA300-0114), and hospital-acquired methicillin-resistant Staphylococcus aureus HA-MRSA (ATCC 33591) were grown at 37° C. overnight from freezer stocks in 10 mL of the media indicated for each assay. All cultures, with the exception of E. faecalis, were grown with shaking at 250 rpm.
(§3) Minimum biofilm eradication concentration (MBEC) was also measured. To each well of a flat-bottomed 96-well plate (Corning 3370), 8 μL of overnight bacterial culture was brought to a volume of 200 μL with fresh media (BHI for S. aureus and MRSA, Todd Hewitt (TH) for E. faecalis). Plates were incubated statically for 24 hours at 37° C. to establish biofilms. After 24 hours, the wells were carefully emptied by inverting the plate and gently shaking. A pre-mixed solution of media and aqueous compound stock solution was added to each well and plates were incubated at 37° C. 16 hours after pre-established biofilms were treated with compound, the media from each well was removed, biofilms were washed three times with 200 μL PBS to remove planktonic cells, and biofilms were incubated overnight at 37° C. in 200 μL of fresh media to allow any viable cells to continue growing. The wells were then vigorously pipetted to resuspend the biofilm cells and the OD at 595 nm was measured using a plate reader (POLARstar Omega, BMG Labtech). Biofilms reaching a final OD of less than 0.1 were considered eradicated and the lowest concentration of antibiotic corresponded to the MBEC. Four replicates were completed for each concentration of compound as well as positive and negative controls.

[2] = test system: red blood cells (defibrinated sheep blood); test: Hemolysis assay (Lysis20); settings: Table 4; concentration at which less than 20% of red blood cells are lysed
Description: Hemolysis assays (Lysis20) were performed according to the procedure detailed in Peng, L., DeSousa, J., Su, Z., Novak, B. M., Nevzorov, A. A., Garland, E. R., and Melander, C., Inhibition of Acinetobacter baumannii biofilm formation on a methacrylate polymer containing a 2-aminoimidazole subunit, Chem. Comm. 2011, 47, 4896-4898. Defibrinated sheep blood was purchased from Hemostat Labs (DSB 100). Compounds representative of each class were serially diluted in sterile PBS from aqueous stock solutions and incubated with resuspended blood cells. The OD of the final suspensions were measured directly using plate reader. TritonX (1% by volume) served as a positive control (100% lysis marker) and sterile PBS served as a negative control (0% lysis marker).
Lysis20 indicates the concentration of compound (in μM) at which less than 20% of red blood cells are lysed.

[3] = test system: CA-MRSA (USA300-0114); test: Minimum inhibitory concentration (MIC), broth microdilution; format: cell-based, Staphylococcus aureus
Description: (§4) Different biological assays were performed. […] All cultures, with the exception of E. faecalis, were grown with shaking at 250 rpm.
(§5) Minimum inhibitory concentration (MIC) values against bacteria were measured using standard method. Compounds were serially diluted two-fold from an aqueous stock solution to yield twelve test concentrations. Overnight S. aureus, E. faecalis, E. coli, P. aeruginosa, CA-MRSA, and HA-MRSA cultures diluted to ca. 10^6 cfu/mL in Mueller-Hinton media and 100 μL were inoculated into each well of a U-bottom 96-well plate (BD Biosciences, BD351177) containing 100 μL of compound solution. Plates were incubated statically at 37° C. for 72 hours upon which time wells were evaluated visually for bacterial growth. The MIC was determined as the lowest concentration of compound resulting in no bacterial growth visible to the naked eye, based on the majority of three independent experiments. Positive and negative aqueous and media controls were conducted for each trial.

[4] = test system: HA-MRSA (ATCC 33591); test: as above; format: cell-based, Staphylococcus aureus
Description: as §4, §5

[5] = test system: E. faecalis biofilms; test: Minimum biofilm eradication concentration (MBEC), regrowth assay; format: cell-based, Enterococcus faecalis
Text: as §1
(§6) Encouraged by the potency of the QACs against planktonic bacterial cells, the inventors then evaluated the efficacy of compound (12,2,12) against Staphylococcus aureus and Enterococcus faecalis biofilms. […] To both accurately evaluate the antibiofilm activity, a regrowth assay was utilized to establish the minimum biofilm eradication concentration (MBEC) of each compound.
as §2, §3

[6] = test system: Escherichia coli (MC4100); test: Minimum inhibitory concentration (MIC), broth microdilution; format: cell-based; settings: for MIC: read-out: MIC E. coli
Description: (§7) The term “minimum inhibitory concentration (MIC)” means the lowest concentration of an antimicrobial agent that will inhibit the visible growth of a microorganism after overnight incubation. MIC values against bacteria, for example, the Gram-positive Staphylococcus aureus and Enterococcus faecalis and the Gram-negative Escherichia coli and Pseudomonas aeruginosa were determined by standard methods.
(§8) With nearly three-dozen amphiphiles varying in structure and cationic nature synthesized, minimum inhibitory concentration (MIC) values against the Gram-positive Staphylococcus aureus and Enterococcus faecalis and the Gram-negative Escherichia coli and Pseudomonas aeruginosa were determined by standard methods. […] The commercially available antibacterial agent benzalkonium chloride (benzyldimethyldodecylammonium chloride, Bn,12) was tested for comparison. The broth microdilution for determining MIC values was performed as previously reported.
as §4, §5

[7] = test system: Pseudomonas aeruginosa (PAO1); test: as above; format: cell-based; settings: for MIC: read-out: MIC P. aeruginosa
Description: as §7, §8, §4, §5

[8] = test system: Staphylococcus aureus MSSA (SH1000); test: as above; format: cell-based
Description: as §7, §8, §4, §5

[9] = test system: Enterococcus faecalis (OG1RF); test: as above; format: cell-based; settings: for MIC: read-out: MIC E. faecalis
Description: as §7, §8, §4, §5

[10] = test system: S. aureus (MSSA, SH1000) biofilms; test: Minimum biofilm eradication concentration (MBEC), regrowth assay; format: cell-based, Staphylococcus aureus; settings: for MBEC MSSA: Table 5, SH1000
Text: as §1, §6, §2, §3

[11] = Table 4, USA300-0114, read-out: MIC CA-MRSA
[12] = Table 4, ATCC 33591, read-out: MIC HA-MRSA
[13] = Table 3, read-out: MIC S. aureus
[14] = Table 4, SH1000, read-out: MIC MSSA
[15] = table for compound (12,3,11-SH,3,12)
[16] = Table 2, pre-established biofilm, ± values varied between 50 and 100 μM for the six trials
[17] = Table 1, read-out: MIC S. aureus

Row | SMILES | MBEC CA-MRSA [1] [µM] | Lysis20 [2] [µM] | MIC [3, 11] [µM] | MIC [4, 12] [µM] | MBEC E. faecalis ([5]; Table 5) [µM] | MIC ([6]; Table 3) [µM] | MIC ([7]; Table 3) [µM] | MIC [8, 13] [µM] | MIC [8, 14] [µM] | MIC ([9]; Table 3) [µM] | MBEC MSSA [10] [µM] | MBEC E. faecalis [5, 16] | MIC ([6]; Table 1) [µM] | MIC ([7]; Table 1) [µM] | MIC [8, 17] [µM] | MIC ([9]; Table 1) [µM] | MBEC S. aureus [10, 16] | further results
1 | C=CC[N+](C)(CC[N+](C)(C)CCCCCCCCCCCC)CC[N+](C)(C)CCCCCCCCCCCC.[Br-].[Br-].[Br-] [12,2,3A,2,12] | 100 | 2 | 1 | 1 | 75 ± 25 | 2 | 4 | 2 | 2 | 2 | 50 |  |  |  |  |  |  | 
2 | CCCCCCCCCCCC[N+](C)(C)CCC[N+](C)(CCC[N+](C)(C)CCCCCCCCCCCC)Cc1ccc(CCCCCCCC)cc1.[Br-].[Br-].[Br-] [12,3,Bn-8,3,12] | >200 | 8 | 2 | 1 | 200 | 1 | 4 | 1 | 2 | 1 | 200 |  |  |  |  |  |  | 
3 | CCCCCCCCCCCC[N+](C)(C)CC[CH-][N+](C)(CCCCCCCCCCCS)CCC[N+](C)(C)CCCCCCCCCCCC (stereo not shown) [12,3,11-SH,3,12] | >200 | 16 |  |  | >200 |  |  |  |  |  | 200 |  |  |  |  |  |  | MBEC USA300-0114 [1, 15]: >200 µM; MIC ([3]; Staphylococcus aureus, Table 4, USA300-0114, read-out: MIC CA-MRSA): 2 µM; MIC ([3]; Staphylococcus aureus, table for compound (12,3,11-SH,3,12), read-out: MIC USA300-0114): 2 µM; MIC ([4]; Staphylococcus aureus, Table 4, ATCC 33591, read-out: MIC HA-MRSA): 2 µM; MIC ([4]; Staphylococcus aureus, table for compound (12,3,11-SH,3,12), read-out: MIC ATCC 33591): 2 µM; MBEC E. faecalis [5, 15]: >200 µM; MIC ([6]; Escherichia coli, table for compound (12,3,11-SH,3,12)): 2 µM; MIC ([7]; Pseudomonas aeruginosa, PAO1, table for compound (12,3,11-SH,3,12)): 8 µM; MIC ([8]; Staphylococcus aureus, MSSA, Table 4, SH1000, read-out: MIC MSSA): 2 µM; MIC ([8]; Staphylococcus aureus, MSSA, table for compound (12,3,11-SH,3,12), read-out: MIC S. aureus): 2 µM; MIC ([9]; Enterococcus faecalis, table for compound (12,3,11-SH,3,12)): 2 µM; MBEC S. aureus [10, 15]: 200 µM
4 | CCCCCCCCCCCC[N+](C)(C)CCC[N+](C)(CCCCCCCCCCCC)CCC[N+](C)(C)CCCCCCCCCCCC.[Br-].[Br-].[Br-] [12,3,12,3,12] | >200 | 4 | 1 | 1 | 200 | 1 | 4 | 0.5 | 0.5 | 1 | 100 |  |  |  |  |  |  | 
5 | CCCCCCCCCCCC[N+](C)(C)CCC[N+](C)(CCC[N+](C)(C)CCCCCCCCCCCC)Cc1ccccc1.[Br-].[Br-].[Br-] [12,3,Bn,3,12] | 200 | 8 | 1 | 1 | 100 | 1 | 2 | 1 | 2 | 1 | 100 |  |  |  |  |  |  | 
6 | CCCCCCCCCCCC[N+](C)(C)CC[N+](C)(C)CC[N+](C)(C)CCCCCCCCCCCC.[Br-].[Br-].[I-] [12,2,1,2,12] | ≥200 | 16 | 1 | 1 | >200 |  |  |  | 1 |  | 200 | 25 µM | 0.5 | 1 | ≤0.25 | ≤0.25 | 50 µM | MIC E. coli ([6]; Table 3): 0.5-4^a μM; MIC P. aeruginosa ([7]; Table 3): 1-8^a μM; MIC S. aureus ([8]; Table 3): ≤0.25-4^a μM; MIC E. faecalis ([9]; Table 3): ≤0.25-4^a μM
7 | CCCCCCCCCCCC[N+](C)(C)CCC[N+](C)(CCCC)CCC[N+](C)(C)CCCCCCCCCCCC.[Br-].[Br-].[Br-] [12,3,4,3,12] | 75 ± 25 | 8 | 0.5 | 0.5 | 50 | 1 | 2 | 1 | 1 | 1 | 75 ± 25 |  |  |  |  |  |  | 
8 | CCCCCCCCCCCC[N+](C)(C)CCN(C)CC[N+](C)(C)CCCCCCCCCCCC.[Br-].[Br-] [12,2,0,2,12] | 100 | 8 | 1 | 0.5 | 100 | 2 | 4 | 1 | 1 | 1 | 75 ± 25 | 100 µM | 1 | 4 | 1 | 2 | 75 ± 25^a μM | 
9 | CCCCCCCCCCCC[N+](C)(C)CC[N+](C)(C)CCCCCCCCCCCC [12,2,12] | 200 | 8 | 0.5 | 0.5 | 50 |  |  |  | 1 |  | 75 ± 25 | 75 μM and 75 ± 25^a μM | 2 | 4 | 1 | 1 | 75 μM and 75 ± 25^a μM | 
